In PMC7402526, “An in vitro quantitative systems pharmacology approach for deconvolving mechanisms of drug-induced, multilineage cytopenias” (PLoS Computational Biology, 2020):
Entries after “also recorded” stand apart in the source; their conditions may differ.

Columns and labels:
[1] = test system: late erythroid cells (Eryth II); assay: MLTA, ErythII: concentration-response and QSP model fit; type: cell-based, human; conditions: Homo sapiens, 144 h
Method in brief: (§1)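 Parameters come from fitting an Emax-based QSP model, with L1 regularization and Emax ranging 0–2, to vehicle-normalized, bead-corrected flow cytometry counts. Counts came from human bone marrow CD34+ cells treated from day 0 through a 6-day multi-lineage cytokine culture in SFEM II, using 2–7 donors per drug.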

granulocytes (Gran-lin) = assay: MLTA, Gran: concentration-response and QSP model fit; type: cell-based, human; conditions: Homo sapiens, 144 h
Method in brief: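 Drug was added at time 0 to thawed human bone marrow CD34+ cells in SFEM II plus a cytokine cocktail. After 6 days at 37°C, subsets were counted by surface-marker flow with TruCount beads. Vehicle-normalized, donor-pooled data then fed an Emax model separating anti-proliferative from cell-killing effects.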

[2] = test system: total dead cells (totalDeadCells); assay: MLTA, total dead cells concentration-response; type: cell-based; conditions: Homo sapiens, 144 h, 6 days, normalized to vehicle control, read-out: total_dead normalized cell count
Method in brief: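 Freeze-thawed primary human bone marrow CD34+ cells in SFEM II with cytokine cocktail, drug added day 0, 6 days at 37°C, 5% CO2. Live/dead counts by 17-parameter flow cytometry with DAPI exclusion, bead-normalized, volume-corrected to cells/mL. Normalized per donor to mean of six vehicle wells; 2–7 donors pooled.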

B cells (B-lin) = assay: MLTA, B-lin: concentration-response and QSP model fit; type: cell-based, human; conditions: Homo sapiens, B-cell, 144 h
Method in brief: as §1

MK cells (MK-lin) = assay: MLTA, MK: concentration-response and QSP model fit; type: cell-based, human; conditions: Homo sapiens, 144 h
Method in brief: as §1

[3] = test system: neutrophils (neutrophil-lin); assay: MLTA, Neut: concentration-response and QSP model fit; type: cell-based, human; conditions: Homo sapiens, Neutrophil, 144 h
Method in brief: as §1

[4] = test system: human bone marrow-derived CD34+ cells differentiated into multiple hematopoietic lineages; assay: MLTA, overall effects across hematopoietic lineages; type: cell-based
Description: A custom optimized cytokine cocktail was developed using commercially available cytokines (Peprotech, New Jersey) to facilitate simultaneous multi-lineage differentiation and self-renewal of freeze-thawed primary human bone marrow-derived CD34+ cells in SFEM II media (cells and media from StemCell Technologies, Vancouver). Cultures were carried out in ultra-low attachment 96-well plates (Corning, New York) with test article added on day 0 and cultured at 37°C, 85% relative humidity, and 5% CO2 for six days before interrogating drug impact via 17-parameter flow cytometry.
The flow cytometry panel used to define hematopoietic subsets was composed of CD34-PECy7, CD90-PECY5, CD38-AF488, CD371-PE, CD45Ra-BV421, CD14-BV605, CD42b-AF647, CD10-PEDazzle594, CD235a-PerCPCy5.5 (BioLegend, California), CD15-BUV395, CD41a-APCH7, CD71-BV786 (BD Biosciences, California), and DAPI for dead cell exclusion (ThermoFisher, California). In short, Day 6 cells were harvested, FcR-blocked (FcR binding inhibitor, ThermoFisher), surface-stained, then analyzed in a buffer containing TruCount Control Beads using a BD LSR Fortessa SORP fitted with a high-throughput sampler (BD Biosciences, California). Data was analyzed in Diva 6.0.2 and exported to CSV where after all cell data was transformed to cell per mL then normalized on a per-donor basis to untreated control wells to determine drug impact.
Donor material was collected and cultured as described above. The number of replicate donor samples per drug ranged from 2–7 and varied per drug (S1 Table). Drug treatment was added at time 0 and cells were maintained in culture for 6 days. Concentrations tested for each drug compound are contained in S1 Table. Concentrations were selected to span a range that is clinically useful. Following treatment, cell populations were measured using flow cytometry. We extracted cell counts from flow cytometry data, normalized to bead counts, and corrected for well volume.
Each well was normalized to the average of six vehicle control wells. For drugs that were tested across multiple runs of the assay, vehicle-normalized donor data were pooled, and we used the average of these pooled data for further modeling. Normalized data used as model inputs are included in S1 Table.
We implemented drug effects using an Emax model for the drug’s effect on each cell type. The 13 maximum effect parameters (EmaxT,C) are unitless and can vary between 0 and 2 and where a subscript, C, represents one of the previously described 13 cell types. We adapted a traditional Emax model using the equations below. We interpreted EmaxT values less than or equal to one as anti-proliferative, and EmaxT values greater than one as indicating a cell-killing mechanism in addition to anti-proliferation. The relationships for these effects are included in the model using the following equations. Eq 2 describes the drug anti-proliferative effect in the net proliferation rate for a given cell type. Eq 3 describes the cell-killing EmaxCK effect.

[5] = test system: multi-potent progenitors (MPPs); assay: MLTA, MPPs: concentration-response and QSP model fit; type: cell-based, human; conditions: Homo sapiens, 144 h
Method in brief: as §1

[6] = test system: granulocyte-macrophage progenitor (GMPs); assay: MLTA, GMPs: concentration-response and QSP model fit; type: cell-based, human; conditions: Homo sapiens, 144 h, 6 days, normalized to vehicle control, read-out: GMPs normalized cell count
Method in brief: as §1

## O=C1CCC(N2C(=O)c3ccccc3C2=O)C(=O)N1 (stereo not shown) [thalidomide]
[1]; dose 0.2 nM, 6 days, normalized to vehicle control, read-out: ErythII normalized cell count
  activity at 0.0002 µM: 94.3%
[1]; dose 1 nM, 6 days, normalized to vehicle control, read-out: ErythII normalized cell count
  activity at 0.001 µM: 99.8%
[1]; dose 5 nM, 6 days, normalized to vehicle control, read-out: ErythII normalized cell count
  activity at 0.005 µM: 105%
[1]; dose 25 nM, 6 days, normalized to vehicle control, read-out: ErythII normalized cell count
  activity at 0.025 µM: 111%
[1]; dose 100 nM, 6 days, normalized to vehicle control, read-out: ErythII normalized cell count
  activity at 0.1 µM: 77.8%
[1]; dose 500 nM, 6 days, normalized to vehicle control, read-out: ErythII normalized cell count
  activity at 0.5 µM: 87.5%
[1]; dose 2500 nM, 6 days, normalized to vehicle control, read-out: ErythII normalized cell count
  activity at 2.5 µM: 93.7%
[1]; parameter from QSP model fitting, read-out: Emax_drug_ErythroidII
  Emax: 0.00351%
Granulocytes (Gran-lin); dose 0.2 nM, 6 days, normalized to vehicle control, read-out: Gran normalized cell count
  activity at 0.0002 µM: 85%
Granulocytes (Gran-lin); dose 1 nM, 6 days, normalized to vehicle control, read-out: Gran normalized cell count
  activity at 0.001 µM: 100%
Granulocytes (Gran-lin); dose 5 nM, 6 days, normalized to vehicle control, read-out: Gran normalized cell count
  activity at 0.005 µM: 110%
Granulocytes (Gran-lin); dose 25 nM, 6 days, normalized to vehicle control, read-out: Gran normalized cell count
  activity at 0.025 µM: 126%
Granulocytes (Gran-lin); dose 100 nM, 6 days, normalized to vehicle control, read-out: Gran normalized cell count
  activity at 0.1 µM: 94.9%
Granulocytes (Gran-lin); dose 500 nM, 6 days, normalized to vehicle control, read-out: Gran normalized cell count
  activity at 0.5 µM: 92.7%
Granulocytes (Gran-lin); dose 2500 nM, 6 days, normalized to vehicle control, read-out: Gran normalized cell count
  activity at 2.5 µM: 102%
Granulocytes (Gran-lin); parameter from QSP model fitting, read-out: Emax_drug_Gran
  Emax: 0.01%
[2]; dose 0.2 nM
  activity at 0.0002 µM: 91.6%
[2]; dose 1 nM
  activity at 0.001 µM: 109%
[2]; dose 5 nM
  activity at 0.005 µM: 96.3%
[2]; dose 25 nM
  activity at 0.025 µM: 120%
[2]; dose 100 nM
  activity at 0.1 µM: 113%
[2]; dose 500 nM
  activity at 0.5 µM: 105%
[2]; dose 2500 nM
  activity at 2.5 µM: 99.8%
B cells (B-lin); dose 0.2 nM, 6 days, normalized to vehicle control, read-out: B-lin normalized cell count
  activity at 0.0002 µM: 90.8%
B cells (B-lin); dose 1 nM, 6 days, normalized to vehicle control, read-out: B-lin normalized cell count
  activity at 0.001 µM: 99.6%
B cells (B-lin); dose 5 nM, 6 days, normalized to vehicle control, read-out: B-lin normalized cell count
  activity at 0.005 µM: 108%
B cells (B-lin); dose 25 nM, 6 days, normalized to vehicle control, read-out: B-lin normalized cell count
  activity at 0.025 µM: 116%
B cells (B-lin); dose 100 nM, 6 days, normalized to vehicle control, read-out: B-lin normalized cell count
  activity at 0.1 µM: 93%
B cells (B-lin); dose 500 nM, 6 days, normalized to vehicle control, read-out: B-lin normalized cell count
  activity at 0.5 µM: 91.5%
B cells (B-lin); dose 2500 nM, 6 days, normalized to vehicle control, read-out: B-lin normalized cell count
  activity at 2.5 µM: 104%
B cells (B-lin); parameter from QSP model fitting, read-out: Emax_drug_B
  Emax: 0.24%
MK cells (MK-lin); dose 0.2 nM, 6 days, normalized to vehicle control, read-out: MK normalized cell count
  activity at 0.0002 µM: 97.8%
MK cells (MK-lin); dose 1 nM, 6 days, normalized to vehicle control, read-out: MK normalized cell count
  activity at 0.001 µM: 103%
MK cells (MK-lin); dose 5 nM, 6 days, normalized to vehicle control, read-out: MK normalized cell count
  activity at 0.005 µM: 118%
MK cells (MK-lin); dose 25 nM, 6 days, normalized to vehicle control, read-out: MK normalized cell count
  activity at 0.025 µM: 114%
MK cells (MK-lin); dose 100 nM, 6 days, normalized to vehicle control, read-out: MK normalized cell count
  activity at 0.1 µM: 101%
MK cells (MK-lin); dose 500 nM, 6 days, normalized to vehicle control, read-out: MK normalized cell count
  activity at 0.5 µM: 88.1%
MK cells (MK-lin); dose 2500 nM, 6 days, normalized to vehicle control, read-out: MK normalized cell count
  activity at 2.5 µM: 105%
MK cells (MK-lin); parameter from QSP model fitting, read-out: Emax_drug_MK
  Emax: 0.00388%
[3]; dose 0.2 nM, 6 days, normalized to vehicle control, read-out: Neut normalized cell count
  activity at 0.0002 µM: 99.5%
[3]; dose 1 nM, 6 days, normalized to vehicle control, read-out: Neut normalized cell count
  activity at 0.001 µM: 79.1%
[3]; dose 5 nM, 6 days, normalized to vehicle control, read-out: Neut normalized cell count
  activity at 0.005 µM: 88.2%
[3]; dose 25 nM, 6 days, normalized to vehicle control, read-out: Neut normalized cell count
  activity at 0.025 µM: 94.5%
[3]; dose 100 nM, 6 days, normalized to vehicle control, read-out: Neut normalized cell count
  activity at 0.1 µM: 62.4%
[3]; dose 500 nM, 6 days, normalized to vehicle control, read-out: Neut normalized cell count
  activity at 0.5 µM: 69%
[3]; dose 2500 nM, 6 days, normalized to vehicle control, read-out: Neut normalized cell count
  activity at 2.5 µM: 96.9%
[3]; parameter from QSP model fitting, read-out: Emax_drug_Neut
  Emax: 1.13%
[4]; 0.2-2500 nM, 6 days, relative to vehicle control
  effect on hematopoietic cell numbers across cell types: least effect on hematopoietic cell types across doses; also recorded: did not drastically decrease cell types
[4]; QSP model fit, EmaxT > 1.0 = cell-killing
  EmaxT effects across cell types (overall statement): ≤ 0.1
[5]; dose 0.2 nM, 6 days, normalized to vehicle control, read-out: MPPs normalized cell count
  activity at 0.0002 µM: 91.8%
[5]; dose 1 nM, 6 days, normalized to vehicle control, read-out: MPPs normalized cell count
  activity at 0.001 µM: 75.9%
[5]; dose 5 nM, 6 days, normalized to vehicle control, read-out: MPPs normalized cell count
  activity at 0.005 µM: 79%
[5]; dose 25 nM, 6 days, normalized to vehicle control, read-out: MPPs normalized cell count
  activity at 0.025 µM: 87.5%
[5]; dose 100 nM, 6 days, normalized to vehicle control, read-out: MPPs normalized cell count
  activity at 0.1 µM: 76.7%
[5]; dose 500 nM, 6 days, normalized to vehicle control, read-out: MPPs normalized cell count
  activity at 0.5 µM: 78.1%
[5]; dose 2500 nM, 6 days, normalized to vehicle control, read-out: MPPs normalized cell count
  activity at 2.5 µM: 91.5%
[5]; parameter from QSP model fitting, read-out: Emax_drug_MPP
  Emax: 0.00111%
[6]; dose 0.2 nM
  activity at 0.0002 µM: 92.4%
[6]; dose 1 nM
  activity at 0.001 µM: 107%
[6]; dose 5 nM
  activity at 0.005 µM: 100%
[6]; dose 25 nM
  activity at 0.025 µM: 112%
[6]; dose 100 nM
  activity at 0.1 µM: 97%
[6]; dose 500 nM
  activity at 0.5 µM: 104%
[6]; dose 2500 nM
  activity at 2.5 µM: 99%
